Tests used:
[1] = test system: tension headaches and migraines; experiment: Earlier treatment of Patient 1 (tension headaches and migraines); assay type: in vivo, human; conditions: Patient 1, before the composition
Text: This patient was a person who experienced tension headaches and migraines. The pain was acute producing nauseas and vomits.

[2] = test system: sphenopalatine ganglion; conditions: cited from earlier work; for duration of anesthesia provided to the nerve structure: long-acting local anesthetics in SPGB

Compound | outcome of earlier treatment [1] | duration of anesthesia provided to the nerve structure [2] | further results
COc1ccc2cc(CCC(C)=O)ccc2c1 [relafen] | without success | – | –
CCCN1CCCC[C@H]1C(=O)Nc1c(C)cccc1C [ropivacaine] | – | at least about an hour | –
CCN(CC)CC(=O)Nc1c(C)cccc1C [lidocaine] | – | – | period for which head pain is decreased (equal to the duration of the analgesia) ([2]; shorter-acting local anesthetic in SPGB): less than an hour
CCCCN1CCCCC1C(=O)Nc1c(C)cccc1C (centres unmarked) [bupivacaine] | – | at least about an hour | –
Cc1ccccc1C(OCCN(C)C)c1ccccc1 (centres unmarked) [norflex] | without success | – | –
